Laboratory results reported in patent publication US20260167619A2, “INDOLINE COMPOUNDS AND DERIVATIVES AS EGFR INHIBITORS” (BeOne Medicines I GmbH, priority 2020, published 2026).

Tests used:
[1] = target: T1, EGFR (aa668-1210, Invitrogen) (Homo sapiens, UniProt P00533); test: Biochemical EGFR inhibition assay (TR-FRET), wild-type EGFR; conditions: ATP at Km, 15 min pre-incubation, 60 min reaction; read-out: WT (Km ATP) IC50
T1 construct: EGFR (aa668-1210, Invitrogen); purchased Invitrogen
How it was run: (§1)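 Biotin-poly GT phosphorylation detected with Eu-cryptate anti-phosphotyrosine (PT66) and XL665-streptavidin after EDTA/KF stop, 665/620 nm ratio. Enzyme and compound preincubated 15 min, then ATP at Km added for 60 min at room temperature. Four-parameter logistic fit gives IC50.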

[2] = target: T2, EGFR(L858R_T790M_C797S) (aa695-end, Invitrogen) (Homo sapiens, UniProt P00533, C797S/L858R/T790M); test: Biochemical EGFR inhibition assay (TR-FRET), L858R/T790M/C797S mutant; conditions: ATP at Km, 15 min pre-incubation, 60 min reaction; read-out: LR_TM_CS (Km ATP) IC50
T2 construct: purchased Invitrogen
How it was run: as §1

[3] = target: EGFR(Dell9_T790M_C797S) (aa 669-1210, in house) (Homo sapiens, UniProt P00533, T790M/C797S, form not given); test: Biochemical EGFR inhibition assay (TR-FRET), Del19/T790M/C797S mutant; conditions: ATP at Km, 15 min pre-incubation, 60 min reaction; read-out: Del_TM_CS (Km ATP) IC50
How it was run: as §1

BaF3-WT cells = BaF3-WT cells (Homo sapiens, UniProt P00533); test: Cell antiproliferation assay (CellTiter-Glo), BaF3-WT; type: cell-based; conditions: 48 h treatment, read-out: BaF3-WT IC50
How it was run: (§2)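 Viability read as CellTiter-Glo luminescence after 48 h compound treatment at 0.2% DMSO final. Eight concentrations, 5-fold steps, made as 500× DMSO stocks starting at 5 mM. Percent inhibition curve-fitted (Hill slope, top, bottom) to give IC50.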

BaF3-LR_TM_CS cells = BaF3-LR_TM_CS cells (Homo sapiens, UniProt P00533, T790M/C797S/L858R, cells depend on it); test: Cell antiproliferation assay (CellTiter-Glo), BaF3-LR_TM_CS; type: cell-based; conditions: 48 h treatment, read-out: BaF3-LR_TM_CS IC50
How it was run: as §2

BaF3-Del_TM_CS cells = BaF3-Del_TM_CS cells (Homo sapiens, UniProt P00533, T790M/C797S, cells depend on it, form not given); test: Cell antiproliferation assay (CellTiter-Glo), BaF3-Del_TM_CS; type: cell-based; conditions: 48 h treatment, read-out: BaF3-Del_TM_CS IC50
How it was run: as §2

Chain of EGFR(Dell9_T790M_C797S) (aa 669-1210, in house) (P00533 with tags, fused parts or gaps DEL746-750/T790M/C797S, form open): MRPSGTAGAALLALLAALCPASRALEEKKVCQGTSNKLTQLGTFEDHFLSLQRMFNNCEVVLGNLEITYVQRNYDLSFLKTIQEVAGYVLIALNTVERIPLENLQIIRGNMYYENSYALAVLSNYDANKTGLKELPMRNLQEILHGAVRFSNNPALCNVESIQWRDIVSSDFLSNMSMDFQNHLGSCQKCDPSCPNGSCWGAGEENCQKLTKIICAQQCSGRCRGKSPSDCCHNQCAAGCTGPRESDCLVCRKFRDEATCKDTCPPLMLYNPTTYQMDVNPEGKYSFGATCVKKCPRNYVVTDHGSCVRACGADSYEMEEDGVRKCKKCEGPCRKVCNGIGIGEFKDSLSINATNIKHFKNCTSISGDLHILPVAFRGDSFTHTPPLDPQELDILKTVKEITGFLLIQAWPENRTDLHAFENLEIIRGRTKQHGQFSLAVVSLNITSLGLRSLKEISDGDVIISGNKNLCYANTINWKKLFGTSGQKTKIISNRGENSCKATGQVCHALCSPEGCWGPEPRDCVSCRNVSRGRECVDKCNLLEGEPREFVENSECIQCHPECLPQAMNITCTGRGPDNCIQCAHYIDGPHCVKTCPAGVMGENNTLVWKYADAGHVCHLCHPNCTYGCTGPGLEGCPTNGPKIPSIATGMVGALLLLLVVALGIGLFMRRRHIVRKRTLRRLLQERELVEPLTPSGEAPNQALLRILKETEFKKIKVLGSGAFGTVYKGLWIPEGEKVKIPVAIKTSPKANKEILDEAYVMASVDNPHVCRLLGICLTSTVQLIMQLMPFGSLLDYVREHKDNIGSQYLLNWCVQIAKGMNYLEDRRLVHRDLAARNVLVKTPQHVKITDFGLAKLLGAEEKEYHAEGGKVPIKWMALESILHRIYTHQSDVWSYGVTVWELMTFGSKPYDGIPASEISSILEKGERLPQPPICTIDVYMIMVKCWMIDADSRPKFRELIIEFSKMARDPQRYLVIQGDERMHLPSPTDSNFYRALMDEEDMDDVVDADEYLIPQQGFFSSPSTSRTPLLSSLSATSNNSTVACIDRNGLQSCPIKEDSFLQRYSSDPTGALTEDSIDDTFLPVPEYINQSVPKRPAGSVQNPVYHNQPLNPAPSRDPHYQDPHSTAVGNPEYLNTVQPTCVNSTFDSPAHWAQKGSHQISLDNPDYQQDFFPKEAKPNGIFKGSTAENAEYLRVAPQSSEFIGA
Chain of BaF3-Del_TM_CS cells (P00533 with tags, fused parts or gaps DEL746-750/T790M/C797S, form open): as above
Chain of BaF3-LR_TM_CS cells (P00533 whole entry T790M/C797S/L858R): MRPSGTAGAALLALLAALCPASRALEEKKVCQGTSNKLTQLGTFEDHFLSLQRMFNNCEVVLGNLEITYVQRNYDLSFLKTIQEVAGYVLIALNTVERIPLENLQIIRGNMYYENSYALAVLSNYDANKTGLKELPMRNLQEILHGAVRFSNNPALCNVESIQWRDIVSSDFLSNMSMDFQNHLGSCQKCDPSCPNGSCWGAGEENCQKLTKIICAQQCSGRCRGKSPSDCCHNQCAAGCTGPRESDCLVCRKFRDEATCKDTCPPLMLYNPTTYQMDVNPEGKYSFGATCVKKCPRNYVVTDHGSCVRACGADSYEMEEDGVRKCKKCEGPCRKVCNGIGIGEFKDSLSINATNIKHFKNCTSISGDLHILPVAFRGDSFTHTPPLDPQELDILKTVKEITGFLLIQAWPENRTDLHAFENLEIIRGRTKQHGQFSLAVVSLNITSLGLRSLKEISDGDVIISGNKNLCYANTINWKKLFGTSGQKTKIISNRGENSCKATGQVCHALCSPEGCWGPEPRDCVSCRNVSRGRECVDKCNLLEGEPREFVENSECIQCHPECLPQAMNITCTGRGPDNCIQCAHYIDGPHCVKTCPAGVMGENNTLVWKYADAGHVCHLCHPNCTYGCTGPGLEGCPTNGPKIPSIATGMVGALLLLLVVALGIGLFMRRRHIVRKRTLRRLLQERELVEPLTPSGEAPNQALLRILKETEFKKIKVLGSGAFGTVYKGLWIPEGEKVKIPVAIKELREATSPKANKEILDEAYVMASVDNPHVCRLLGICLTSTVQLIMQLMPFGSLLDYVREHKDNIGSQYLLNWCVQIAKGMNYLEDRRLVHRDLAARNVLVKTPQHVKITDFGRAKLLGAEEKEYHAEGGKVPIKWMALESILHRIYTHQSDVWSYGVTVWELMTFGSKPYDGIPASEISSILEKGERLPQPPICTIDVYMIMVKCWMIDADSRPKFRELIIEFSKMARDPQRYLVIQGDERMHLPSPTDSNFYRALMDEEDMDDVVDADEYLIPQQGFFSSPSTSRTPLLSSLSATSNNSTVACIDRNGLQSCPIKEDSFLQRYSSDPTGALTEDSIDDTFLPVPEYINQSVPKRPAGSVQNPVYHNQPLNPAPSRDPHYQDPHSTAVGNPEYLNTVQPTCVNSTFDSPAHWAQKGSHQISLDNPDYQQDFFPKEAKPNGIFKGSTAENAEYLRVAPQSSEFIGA
T1 sequence (P00533 668-1210): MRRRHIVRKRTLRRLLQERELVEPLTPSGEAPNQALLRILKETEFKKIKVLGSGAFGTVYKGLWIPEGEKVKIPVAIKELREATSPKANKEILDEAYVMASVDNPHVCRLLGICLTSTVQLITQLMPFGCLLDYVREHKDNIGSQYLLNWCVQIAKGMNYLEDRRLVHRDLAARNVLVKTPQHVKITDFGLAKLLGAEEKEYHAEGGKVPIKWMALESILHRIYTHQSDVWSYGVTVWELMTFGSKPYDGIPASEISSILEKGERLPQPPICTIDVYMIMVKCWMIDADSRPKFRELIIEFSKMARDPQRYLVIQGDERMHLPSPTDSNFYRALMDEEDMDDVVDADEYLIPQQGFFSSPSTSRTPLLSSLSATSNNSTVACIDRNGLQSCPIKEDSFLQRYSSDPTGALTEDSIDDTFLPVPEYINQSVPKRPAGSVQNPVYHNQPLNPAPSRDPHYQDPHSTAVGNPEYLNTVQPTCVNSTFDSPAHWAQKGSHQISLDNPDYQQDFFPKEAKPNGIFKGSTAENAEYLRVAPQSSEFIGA
T2 sequence (P00533 695-1210 T790M/C797S/L858R): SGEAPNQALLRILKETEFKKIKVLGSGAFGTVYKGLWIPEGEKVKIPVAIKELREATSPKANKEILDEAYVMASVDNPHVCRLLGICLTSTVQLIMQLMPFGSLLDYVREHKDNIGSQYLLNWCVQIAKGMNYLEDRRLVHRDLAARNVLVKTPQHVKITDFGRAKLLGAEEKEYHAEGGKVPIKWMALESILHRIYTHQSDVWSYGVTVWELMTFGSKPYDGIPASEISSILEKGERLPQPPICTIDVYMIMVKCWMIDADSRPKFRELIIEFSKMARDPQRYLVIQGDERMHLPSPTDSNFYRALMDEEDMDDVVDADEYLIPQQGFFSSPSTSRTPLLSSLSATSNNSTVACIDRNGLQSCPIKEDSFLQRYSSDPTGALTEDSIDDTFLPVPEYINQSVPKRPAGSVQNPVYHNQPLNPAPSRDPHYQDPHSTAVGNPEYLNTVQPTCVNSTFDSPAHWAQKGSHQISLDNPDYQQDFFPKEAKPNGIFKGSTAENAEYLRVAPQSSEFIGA

Row | Structure (SMILES) | IC50 [1] [nM] | IC50 [2] [nM] | IC50 [3] [nM] | GI50 (BaF3-WT cells) [nM] | GI50 (BaF3-LR_TM_CS cells) [nM] | GI50 (BaF3-Del_TM_CS cells) [nM]
1 | CNC(=O)N1CCc2cccc(Nc3nc(Nc4ccc(N5CCC(N6CCN(C)CC6)CC5)cc4OC)ncc3Cl)c21 [Example 16, 7-((5-chloro-2-((2-methoxy-4-(4-(4-methylpiperazin-1-yl)piperidin-1-yl)phenyl)amino)pyrimidin-4-yl)amino)-N-methylindoline-1-carboxamide] | 286 | 38 | 87 | 1980 | 1120 | 802
2 | CN(C)C1CCN(c2ccc(Nc3ncc(Cl)c(Nc4cccc5c4N(S(C)(=O)=O)CC5)n3)c3c2CCO3)CC1 [Example 47, 5-chloro-N^2-(4-(4-(dimethylamino)piperidin-1-yl)-2,3-dihydrobenzofuran-7-yl)-N^4-(1-(methylsulfonyl)indolin-7-yl)pyrimidine-2,4-diamine] | 3.8 | 0.85 | 0.3 | 630 | 37.8 | 12.3
3 | COc1cc(N2CCC(N3CCN(C)CC3)CC2)ccc1Nc1ncc(C(F)(F)F)c(Nc2cccc3c2N(S(C)(=O)=O)CC3)n1 [Example 31, N^2-(2-methoxy-4-(4-(4-methylpiperazin-1-yl)piperidin-1-yl)phenyl)-N^4-(1-(methylsulfonyl)indolin-7-yl)-5-(trifluoromethyl)pyrimidine-2,4-diamine] | 3.1 | 0.33 | 0.47 | 522 | 109 | 26.2
4 | CNS(=O)(=O)N1CCc2cccc(Nc3nc(Nc4ccc(N5CCC(N6CCN(C)CC6)CC5)cc4OC)ncc3Cl)c21 [Example 14, 7-((5-chloro-2-((2-methoxy-4-(4-(4-methylpiperazin-1-yl)piperidin-1-yl)phenyl)amino)pyrimidin-4-yl)amino)-N-methylindoline-1-sulfonamide] | 1.4 | 0.24 | 0.59 | 193 | 14.3 | 8.76
5 | CN(C)C1CCN(c2ccc(Nc3ncc(Br)c(Nc4cccc5c4N(S(C)(=O)=O)CC5)n3)c3c2OCCO3)CC1 [Example 54, 5-bromo-N^2-(8-(4-(dimethylamino)piperidin-1-yl)-2,3-dihydrobenzo[b][1,4]dioxin-5-yl)-N^4-(1-(methylsulfonyl)indolin-7-yl)pyrimidine-2,4-diamine] | 4.8 | 0.25 | 0.16 | 372 | 42.4 | 18.6
6 | CN1CCN(C2CCN(c3ccc(Nc4ncc(Cl)c(Nc5cccc6c5N(S(C)(=O)=O)CC6)n4)c4c3CCO4)CC2)CC1 [Example 49, 5-chloro-N^2-(4-(4-(4-methylpiperazin-1-yl)piperidin-1-yl)-2,3-dihydrobenzofuran-7-yl)-N^4-(1-(methylsulfonyl)indolin-7-yl)pyrimidine-2,4-diamine] | 3.8 | 0.95 | 0.45 | 1510 | 79.3 | 19.3
7 | COc1cc(N2CCC(N3CCN(C)CC3)CC2)ccc1Nc1ncc(Cl)c(Nc2ccc(F)c3c2N(S(C)(=O)=O)CC3)n1 [Example 1, 5-chloro-N^4-(4-fluoro-1-(methylsulfonyl)indolin-7-yl)-N^2-(2-methoxy-4-(4-(4-methylpiperazin-1-yl)piperidin-1-yl)phenyl)pyrimidine-2,4-diamine] | 0.55 | 0.1 | 0.13 | 635 | 152 | 48.2
8 | COc1cc(N2CCC(N3CCN(C)CC3)CC2)ccc1Nc1ncc(Cl)c(Nc2cccc3c2N(S(C)(=O)=O)C(C)C3)n1 (stereo not drawn) [Example 18, 5-chloro-N^2-(2-methoxy-4-(4-(4-methylpiperazin-1-yl)piperidin-1-yl)phenyl)-N^4-(2-methyl-1-(methylsulfonyl)indolin-7-yl)pyrimidine-2,4-diamine] | 2.3 | 0.4 | 0.68 | 422 | 16.5 | 7.47

Next, values leading:

Row | IC50 [1] [nM] | IC50 [2] [nM] | IC50 [3] [nM] | GI50 (BaF3-WT cells) [nM] | GI50 (BaF3-LR_TM_CS cells) [nM] | GI50 (BaF3-Del_TM_CS cells) [nM] | Structure (SMILES)
9 | 455 | 5.3 | 10 | 2090 | 240 | 87 | COc1cc(N2CCN(C)[C@@H](C)C2)c(C)cc1Nc1nc(Nc2cccc3c2N(S(C)(=O)=O)CC3)c2cc[nH]c2n1 [Example 105, (S)—N^2-(4-(3,4-dimethylpiperazin-1-yl)-2-methoxy-5-methylphenyl)-N^4-(1-(methylsulfonyl)indolin-7-yl)-7H-pyrrolo[2,3-d]pyrimidine-2,4-diamine]
10 | 110 | 1.5 | 2.6 | 1520 | 218 | 54.1 | CCOc1cc(N2CCC(N3CCN(C)CC3)CC2)c(C)cc1Nc1nc(Nc2cccc3c2N(S(C)(=O)=O)CC3)c2cc[nH]c2n1 [Example 93, N^2-(2-ethoxy-5-methyl-4-(4-(4-methylpiperazin-1-yl)piperidin-1-yl)phenyl)-N^4-(1-(methylsulfonyl)indolin-7-yl)-7H-pyrrolo[2,3-d]pyrimidine-2,4-diamine]
11 | 427 | 3 | 8.6 | 1970 | 399 | 59 | COc1cc(C2CCN(C)CC2)c(C)cc1Nc1nc(Nc2cccc3c2N(S(C)(=O)=O)CC3)c2cc[nH]c2n1 [Example 99, N^2-(2-methoxy-5-methyl-4-(1-methylpiperidin-4-yl)phenyl)-N^4-(1-(methylsulfonyl)indolin-7-yl)-7H-pyrrolo[2,3-d]pyrimidine-2,4-diamine]
12 | 148 | 8.6 | 8.8 | 1200 | 459 | 349 | COc1cc(N2CCC(N3CCN(C)CC3)CC2)ccc1Nc1nc(Nc2cccc3c2N(S(C)(=O)=O)CC3)c2sccc2n1 [Example 75, N^2-(2-methoxy-4-(4-(4-methylpiperazin-1-yl)piperidin-1-yl)phenyl)-N^4-(1-(methylsulfonyl)indolin-7-yl)thieno[3,2-d]pyrimidine-2,4-diamine]
13 | 1530 | 17 | 14 | 1400 | 504 | 225 | Cc1cc(Nc2nc(Nc3cccc4c3N(S(C)(=O)=O)CC4)c3cc[nH]c3n2)c(OC(C)C)cc1N1CCC(N2CCN(C)CC2)CC1 [Example 92, N^2-(2-isopropoxy-5-methyl-4-(4-(4-methylpiperazin-1-yl)piperidin-1-yl)phenyl)-N^4-(1-(methylsulfonyl)indolin-7-yl)-7H-pyrrolo[2,3-d]pyrimidine-2,4-diamine]
14 | 44 | 1.04 | 1.5 | 2560 | 191 | 87.5 | COc1cc(N2CCC(N3CCN(C)CC3)CC2)ccc1Nc1nc(Nc2cccc3c2N(S(C)(=O)=O)CC3)c2cc[nH]c2n1 [Example 90, N^2-(2-methoxy-4-(4-(4-methylpiperazin-1-yl)piperidin-1-yl)phenyl)-N^4-(1-(methylsulfonyl)indolin-7-yl)-7H-pyrrolo[2,3-d]pyrimidine-2,4-diamine]
15 | 104 | 1.9 | 2.2 | 2140 | 464 | 181 | COc1cc(C2CCN(CCO)CC2)c(C)cc1Nc1nc(Nc2cccc3c2N(S(C)(=O)=O)CC3)c2cc[nH]c2n1 [Example 108, 2-(4-(5-methoxy-2-methyl-4-((4-((1-(methylsulfonyl)indolin-7-yl)amino)-7H-pyrrolo[2,3-d]pyrimidin-2-yl)amino)phenyl)piperidin-1-yl)ethan-1-ol]
16 | 106 | 1.2 | 1.6 | 394 | 61.3 | 38.3 | CN1CCN(C2CCN(c3ccc(Nc4nc(Nc5cccc6c5N(S(C)(=O)=O)CC6)c5cc[nH]c5n4)c4c3CCO4)CC2)CC1 [Example 125, N^2-(4-(4-(4-methylpiperazin-1-yl)piperidin-1-yl)-2,3-dihydrobenzofuran-7-yl)-N^4-(1-(methylsulfonyl)indolin-7-yl)-7H-pyrrolo[2,3-d]pyrimidine-2,4-diamine]
17 | 22 | 0.56 | 0.96 | 1460 | 76.5 | 24.7 | COc1cc(N2CCC(N3CCN(C)CC3)CC2)c(F)cc1Nc1nc(Nc2cccc3c2N(S(C)(=O)=O)CC3)c2cc[nH]c2n1 [Example 98, N^2-(5-fluoro-2-methoxy-4-(4-(4-methylpiperazin-1-yl)piperidin-1-yl)phenyl)-N4-(1-(methylsulfonyl)indolin-7-yl)-7H-pyrrolo[2,3-d]pyrimidine-2,4-diamine]
